The target of one series is CDK9/cyclinT1 complex (Homo sapiens, UniProt P50750). The series is described as follows: In-vitro enzymatic inhibitory activity testing, CDK9 inhibition assay (Caliper EZ Reader II). Conditions: CDK9/cyclinT1 8 nM, 180 min at 27° C. The format is biochemical. Put shortly: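 Enzyme preincubated 10 min with compound, then peptide substrate plus ATP added in 80 mM MES pH 6.5, 10 mM MgCl2 buffer; 180 min at 27 °C, stopped with EDTA.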

The next series deals with Caco-2 cells. The series is described as follows: Caco-2 membrane permeability and efflux rate. The format is in vitro ADME. Conditions: Caco-2, 5 μM, 2 hours; for Papp(B-A): basal end to top end; for Papp(A-B): top end to basal end. The method in brief: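 Caco-2 monolayers after 14-18 days' culture; compound at 5 μM final in HBSS (10 mM HEPES, pH 7.4), apical-to-basal and basal-to-apical, 2 h at 37° C. LC/MS/MS gives Papp (10-6 cm/s) and efflux ratio; lucifer yellow checks monolayer integrity.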

In series [1] the target is T1, CDK12 (aa686-1082)/cyclinK complex (Homo sapiens, UniProt Q9NYV4).
T1 construct: A CDK12 (aa686-1082)/cyclinK complex (50 nM)
The series is described as follows: In-vitro enzymatic inhibitory activity testing, CDK12 inhibition assay (Caliper EZ Reader II). The format is biochemical. Conditions: CDK12/cyclinK 50 nM, 180 min at 27° C.; read-out: CDK12 IC50. Put shortly:
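Caliper EZ Reader II mobility-shift separation of 5-FAM-CDK9tide substrate (2 μM) from phosphoproduct, using 50 nM CDK12 (aa686-1082)/cyclinK in 80 mM MES pH 6.5, 10 mM MgCl2, 0.01% Tween 20, 50 ug/mL BSA. Compound pre-incubated 10 min with enzyme, then substrate/ATP added for 180 min at 27° C; EDTA stop. IC50 by nonlinear dose-response regression.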

Usually IC50 stands for the point on the concentration scale where inhibition reaches its midpoint.

SMILES strings stand for the structures. A value given as a limit tells only on which side of the number the result lay.

Sequence of CDK9/cyclinT1 complex (P50750 whole entry, species assumed): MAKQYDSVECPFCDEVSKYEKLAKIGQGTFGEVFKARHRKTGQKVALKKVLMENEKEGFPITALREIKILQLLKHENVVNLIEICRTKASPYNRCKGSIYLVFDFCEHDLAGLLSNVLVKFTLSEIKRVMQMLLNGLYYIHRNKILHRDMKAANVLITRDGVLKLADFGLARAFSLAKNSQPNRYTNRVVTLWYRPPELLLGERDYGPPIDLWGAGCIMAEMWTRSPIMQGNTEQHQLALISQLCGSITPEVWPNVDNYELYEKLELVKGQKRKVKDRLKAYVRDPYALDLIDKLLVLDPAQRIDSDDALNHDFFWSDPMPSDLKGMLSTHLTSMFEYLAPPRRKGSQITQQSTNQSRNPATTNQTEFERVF
Sequence of CDK9/cyclinT1 complex (O60563 whole entry partner, species assumed): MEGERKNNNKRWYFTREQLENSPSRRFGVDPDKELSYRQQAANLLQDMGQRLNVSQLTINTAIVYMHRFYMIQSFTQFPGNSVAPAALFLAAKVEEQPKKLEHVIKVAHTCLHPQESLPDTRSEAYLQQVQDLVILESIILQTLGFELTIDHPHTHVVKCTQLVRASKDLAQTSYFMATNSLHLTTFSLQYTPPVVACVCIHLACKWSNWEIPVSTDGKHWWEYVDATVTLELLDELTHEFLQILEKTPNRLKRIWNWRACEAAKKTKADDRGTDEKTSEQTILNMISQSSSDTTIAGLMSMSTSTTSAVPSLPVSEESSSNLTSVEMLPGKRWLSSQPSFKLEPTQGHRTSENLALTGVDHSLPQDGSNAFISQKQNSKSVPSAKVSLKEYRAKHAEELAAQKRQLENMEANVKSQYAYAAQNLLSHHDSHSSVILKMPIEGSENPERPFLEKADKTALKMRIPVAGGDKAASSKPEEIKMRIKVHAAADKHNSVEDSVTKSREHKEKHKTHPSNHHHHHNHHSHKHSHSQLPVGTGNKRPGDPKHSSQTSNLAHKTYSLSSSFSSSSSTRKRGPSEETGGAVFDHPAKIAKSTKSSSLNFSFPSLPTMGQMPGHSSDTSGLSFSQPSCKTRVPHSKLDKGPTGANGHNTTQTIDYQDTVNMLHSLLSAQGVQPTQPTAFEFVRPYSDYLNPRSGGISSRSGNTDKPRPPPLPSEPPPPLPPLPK
T1 sequence (Q9NYV4 686-1082, species assumed): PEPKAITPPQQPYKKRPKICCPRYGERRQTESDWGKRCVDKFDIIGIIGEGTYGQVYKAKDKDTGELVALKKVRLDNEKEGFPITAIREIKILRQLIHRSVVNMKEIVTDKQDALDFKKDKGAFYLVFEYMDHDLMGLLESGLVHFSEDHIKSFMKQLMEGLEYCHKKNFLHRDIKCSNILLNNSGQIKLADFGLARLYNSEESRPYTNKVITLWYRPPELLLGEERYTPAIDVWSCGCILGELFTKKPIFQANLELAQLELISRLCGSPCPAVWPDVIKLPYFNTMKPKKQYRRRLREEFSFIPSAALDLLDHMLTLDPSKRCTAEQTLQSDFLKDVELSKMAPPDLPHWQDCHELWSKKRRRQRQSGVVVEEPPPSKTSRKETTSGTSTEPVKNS
T1 sequence (O75909 whole entry partner, species assumed, the tested form may be a part): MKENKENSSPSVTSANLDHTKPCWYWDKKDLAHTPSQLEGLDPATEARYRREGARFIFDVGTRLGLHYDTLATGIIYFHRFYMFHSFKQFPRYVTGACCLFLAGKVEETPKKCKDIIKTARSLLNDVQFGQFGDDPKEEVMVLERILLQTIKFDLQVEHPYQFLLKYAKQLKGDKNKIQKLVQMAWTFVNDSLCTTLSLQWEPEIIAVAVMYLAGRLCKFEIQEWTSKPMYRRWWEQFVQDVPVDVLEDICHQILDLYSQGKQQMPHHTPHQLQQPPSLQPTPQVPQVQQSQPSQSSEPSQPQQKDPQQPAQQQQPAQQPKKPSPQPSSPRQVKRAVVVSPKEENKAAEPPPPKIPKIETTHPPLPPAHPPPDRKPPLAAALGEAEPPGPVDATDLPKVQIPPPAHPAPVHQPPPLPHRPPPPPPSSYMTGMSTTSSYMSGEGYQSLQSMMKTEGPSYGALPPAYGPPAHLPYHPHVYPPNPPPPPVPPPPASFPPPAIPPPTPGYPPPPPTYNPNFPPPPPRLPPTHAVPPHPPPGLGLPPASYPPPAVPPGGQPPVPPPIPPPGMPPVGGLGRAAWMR

At CDK9/cyclinT1 complex, `CP(C)(=O)c1cccc2c(-c3nc(NC4(CO)CCOC4)ncc3C(F)(F)F)c[nH]c12` (single isomer, unassigned) [Compound 119] showed an IC50 of over 50 µM. In the series with Caco-2 cells, the “ER (efflux rate)” value turned out to be 15.3; the “Papp(B-A)” value was 34.09 10^−6, cm/s; the “Papp(A-B)” value was 2.23 10^−6, cm/s. In addition, the IC50 in series [1] was over 50 µM.

The compound `CC(CO)CNc1ncc(C(F)(F)F)c(-c2c[nH]c3c(P(C)(C)=O)cccc23)n1` (single isomer, unassigned) [Compound 150] gave an IC50 against CDK9/cyclinT1 complex of over 50 µM. Also, in the series on Caco-2 cells, the “ER (efflux rate)” value came to 5.95; the “Papp(B-A)” value was 27.87 10^−6, cm/s; the “Papp(A-B)” value is on record as 4.68 10^−6, cm/s. Further, in series [1], the IC50 was over 50 µM.

With `CP(C)(=O)c1cccc2c(-c3nc(NCC4CC4CO)ncc3C(F)(F)F)c[nH]c12` (single isomer, unassigned) [Compound 144], the IC50 at CDK9/cyclinT1 complex was over 50 µM. In addition, in the series with Caco-2 cells, the “ER (efflux rate)” value worked out at 12.7; the “Papp(B-A)” value is 36.73 10^−6, cm/s; the “Papp(A-B)” value is listed as 2.89 10^−6, cm/s. For the same compound, in series [1], the IC50 was over 50 µM.

The compound `CC(O)[C@H](C)Nc1ncc(C(F)(F)F)c(-c2c[nH]c3c(P(C)(C)=O)cccc23)n1` (single isomer, unassigned) [Compound 130] gave an IC50 against CDK9/cyclinT1 complex of over 50 µM. In the series with Caco-2 cells, the “ER (efflux rate)” value came to 6.03; the “Papp(B-A)” value is given as 35.08 10^−6, cm/s; the “Papp(A-B)” value is listed as 5.82 10^−6, cm/s. Also, in series [1], the IC50 is over 50 µM.

`CC(O)[C@H](C)Nc1ncc(C(F)(F)F)c(-c2c[nH]c3c(P(C)(C)=O)cccc23)n1` (single isomer, unassigned) [Compound 129]: the IC50 (against CDK9/cyclinT1 complex; in series [1]) was over 50 µM each time.

`C[C@@H](CO)Nc1ncc(C#N)c(-c2c[nH]c3c(P(C)(C)=O)cccc23)n1` [Compound 179, (S)-4-(7-(dimethylphosphoryl)-1H-indole-3-yl)-2-((1-hydroxypropan-2-yl)amino)pyrimidine-5-carbonitrile]: the IC50 against CDK9/cyclinT1 complex was over 50 µM; in series [1], 5 to 50 µM.

Consider `CC[C@@H](CO)Nc1ncc(C(F)(F)F)c(-c2c[nH]c3c(P(C)(C)=O)cccc23)n1` [Compound 88, (S)-(3-(2-((1-hydroxybutan-2-yl)amino)-5-(trifluoromethyl)pyrimidin-4-yl)-1H-indole-7-yl)dimethylphosphine oxide], for which the IC50 (at CDK9/cyclinT1 complex; in series [1]) was over 50 µM throughout.

In the case of `CP(C)(=O)c1cccc2c(-c3nc(NC4(CO)CC(F)C4)ncc3C(F)(F)F)c[nH]c12` (stereo not shown) [Compound 105, (3-(2-((3-fluoro-1-(hydroxymethyl)cyclobutyl)amino)-5-(trifluoromethyl)pyrimidin-4-yl)-1H-indole-7-yl)dimethylphosphine oxide], the IC50 (on CDK9/cyclinT1 complex; in series [1]) was over 50 µM in each case.

The values above are taken from patent US20240124504A1, “AROMATIC HETEROCYCLIC COMPOUND, AND PHARMACEUTICAL COMPOSITION AND APPLICATION THEREOF” (GT APEIRON THERAPEUTICS LIMITED, priority 2020, published 2024).
